Measurements reported in patent publication US8895762B2, “Process for the preparation of sulfamide derivatives” (Janssen Pharmaceutica NV, priority 2011, dated 2014).

Assay: solubility in water at room temperature
Assay type: physicochemical

solubility in water: 0.35 g/100 g water
Compound: NC[C@H]1COc2cc(Cl)ccc2O1 [compound of formula (V-S), (2S)-6-chloro-2,3-dihydro-1,4-benzodioxin-2-methanamine]
